Laboratory results: publication PMC5449446, “Metabolic Value Chemoattractants Are Preferentially Recognized at Broad Ligand Range Chemoreceptor of Pseudomonas putida KT2440” (Frontiers in Microbiology, 2017)

B1: PcaY_PP-LBD, recombinant ligand binding domain of the PcaY_PP (PP2643) chemoreceptor of Pseudomonas putida KT2440 (domain or fragment, UniProt Q88JK6 44-196, looked up)
chain: GSDQQITELDQTAHQSDRLNNALLMAIRSSANVSSGFIEQLGGHDESAGKRMALSVELNNKSQALVDEFVENAREPALRGLATELQATFAEYAKAVAGQREATRQRSLEQYFKVNSDAGNAMGRLQTLRQQLVTTLSERGQQIMLESDRRLAR
notes: Cloned NdeI/BamHI into pET28b with a stop codon in the reverse primer; No tag removal is described

What was measured:
McpP = molecular target: McpP; design: method as in ref (6) (a number printed in a supplementary file, which may have a reference list of its own: not looked up in the article's list); conditions: ITC, purified recombinant LBD; ref (6); cited from earlier work
McpS = molecular target: McpS; design: method as in ref (7-9) (a number printed in a supplementary file, which may have a reference list of its own: not looked up in the article's list); conditions: ITC, purified recombinant LBD; ref (7-9); cited from earlier work
PcaY_PP-LBD [1] = molecular target: T1, PcaY_PP-LBD (Pseudomonas putida, UniProt Q88JK6); design: species or system Pseudomonas putida KT2440; conditions: saturating ligand (400 μM), 10°C
T1 construct: His-tag (from the pET28b vector; inferred from NdeI/BamHI cloning and HisTrap purification) (N); made in house; host or cells: Escherichia coli BL21 (DE3)
Protocol: Experiments were performed in a Beckman Coulter Optima XL-A analytical ultracentrifuge (Beckman-Coulter, Palo Alto, CA, United States) equipped with UV-visible absorbance detection system, using an An50Ti 8-hole rotor, 12 mm path-length charcoal-filled epon double-sector centerpieces. The sedimentation velocity (SV) experiments were carried out at a rotor speed of 40,000 rpm and 10°C using 400 μl samples in analysis buffer. […] Analysis buffer with or without ligands was used as reference. […] A least squares boundary modeling of the SV data was used to calculate sedimentation coefficient distributions with the size-distribution c(s) method ([Schuck, 2000]) implemented in the SEDFIT v11.71 software. […] The multi-speed sedimentation equilibrium experiments were carried out at 10°C and 12,000, 14,000, and 18,000 rpm until equilibrium was reached. […] Generally two wavelengths were used per sample.

P. putida KT2440 = assay: Growth in M9 minimal medium with ligand as sole C-source; assay type: cell-based, Pseudomonas putida KT2440; conditions: 10 mM (2 mM for poorly soluble) ligand
Protocol: P. putida KT2440R was grown in the same medium supplemented with rifampicin (10 μg ml^-1). […] When necessary, the pH of the medium was adjusted to 7.0 prior to inoculation. Bacterial growth rates were monitored by measuring the OD660 until cultures reached the stationary phase. The growth rate during the exponential growth (m) was calculated according to m = (LnOD2-LnOD1).(t2-t1)^-1, where OD2/t2 and OD1/t1 correspond to the OD660/time at the end and the beginning of the time interval. The generation time (G) was defined by G = Ln2 μ^-1. […] Normalized growth yield per carbon source after 24 h was determined applying correlation factors between cell dry weight and OD660 determined in batch cultures and assuming that all the carbon source was consumed during growth. Data were fitted by linear least squares regression or submitted to the chi-squared test with Yates correction using in both cases the Graph Pad Prism v7.02 software.

[2] = system: Pseudomonas putida KT2440; assay: Quantitative capillary chemotaxis assay; assay type: cell-based; conditions: 30 min, wild type KT2440
Protocol: Subsequently, the cells were re-suspended in the same buffer, adjusted to an OD660 of 0.15 and 230 μl aliquots of this bacterial culture were placed into 96-well plates. For the quantitative assays, one-microliter capillary tubes (Microcaps, Drummond Scientific, Ref. […]) were heat-sealed at one end and filled with either the chemotaxis buffer (negative control) or chemotaxis buffer containing the chemoeffector. The capillaries were immersed into the bacterial suspension and incubated for 30 min at room temperature. Capillaries were subsequently removed from the bacterial suspension, rinsed with sterile water and the content expelled into 1 ml of M9 medium. Serial dilutions were plated onto LB medium (containing the appropriate antibiotics) and the number of colony forming units was determined. In all cases, data were corrected with the number of cells that swam into buffer containing capillaries.

PcaY_PP-LBD [3] = molecular target: T1, PcaY_PP-LBD; assay: biochemical; assay type: binding, Pseudomonas putida KT2440; conditions: for ∆G / ∆H: ITC
Protocol: Experiments were carried out at 25°C using a VP-ITC titration calorimeter (Microcal Inc., Northampton, Massachusetts). […] Obtained data were corrected with the heat changes measured for the injection of ligand into buffer. Data were normalized with the protein concentration (Bradford assay) and fitted with the “One Binding Site” model of the MicroCal version of the ORIGIN 7.0 software (OriginLab Corporation, Northampton, MA, United States), leaving all parameters floating.

Tar-LBD = system: Tar-LBD; design: method as in Milligan and Koshland, 1993; conditions: estimated; ref Milligan and Koshland, 1993; cited from earlier work
MCP2983 = system: MCP2983; design: method as in Ni et al., 2015; conditions: ref Ni et al., 2015; cited from earlier work
[4] = molecular target: the molecule itself; assay: AUC; multi-speed, multi-wavelength sedimentation equilibrium, ligand-free protein, six concentrations 15-280 uM, 12,000, 14,000 and 18,000 rpm, 10°C, analysis buffer pH 8.0; global fit to a monomer-dimer self-association model (SEDPHAT); dimer to monomers
[5] = molecular target: the molecule itself; assay: AUC; sedimentation velocity with saturating quinate or shikimate (400 uM), 40,000 rpm, 10°C, analysis buffer (5 mM PIPES, 5 mM MES, 5 mM Tris-HCl, pH 8.0)

Molecule | sedimentation coefficient s20,w of PcaY_PP-LBD in presence of ligand (PcaY_PP-LBD [1]) | chemotactic response [2] | Kd (PcaY_PP-LBD [3]) | ∆G (PcaY_PP-LBD [3]) | ∆H (PcaY_PP-LBD [3]) | other results
CC(=O)O [Acetate] |  |  |  |  |  | Kd (McpP): 34 µM; Kd (McpS): 574 µM
O=C(O)[C@]1(O)C[C@@H](O)[C@@H](O)[C@H](O)C1 [Quinate, quinate] | 3.1 S | very strong responses | 3.7 µM | -7.40 ± 0.02 kcal/mol | -13.2 ± 0.4 kcal/mol | capacity to support growth as sole carbon source (P. putida KT2440): supported bacterial growth
O=C(O)C1=CC(O)C(O)C(O)C1 (stereo not drawn) [Shikimate, shikimate] | 3.1 S | very strong responses | 4.4 µM | -7.30 ± 0.1 kcal/mol | -16.6 ± 1.1 kcal/mol | 
N[C@@H](CC(=O)O)C(=O)O [aspartate] |  |  |  |  |  | decrease of the dimer self-association constant, factor (Tar-LBD): around 100
O=C(O)/C=C(/CC(=O)O)C(=O)O [cis-aconitate] |  |  |  |  |  | binding to recombinant LBD (MCP2983): recognized; KD (PcaY_PP-LBD [3]; ITC at 25°C, 25 μM protein, One Binding Site model, means and SD of three experiments): did not show any binding
B1 |  |  |  |  |  | Kd [4]: 57.5 µM; stoichiometry N [5]: 2
